According to publication PMC12668314, “Identification of a Proteolysis‐Targeting‐Chimera that Addresses Activated Checkpoint Kinase‐1 Reveals its Non‐Catalytic Functions in Tumor Cells” (Angewandte Chemie (International Ed. in English), 2025):

Target: T1, CHK1 (checkpoint kinase-1) (Homo sapiens, UniProt O14757)
T1 construct: gene CHEK1
T1 sequence (O14757 1-476): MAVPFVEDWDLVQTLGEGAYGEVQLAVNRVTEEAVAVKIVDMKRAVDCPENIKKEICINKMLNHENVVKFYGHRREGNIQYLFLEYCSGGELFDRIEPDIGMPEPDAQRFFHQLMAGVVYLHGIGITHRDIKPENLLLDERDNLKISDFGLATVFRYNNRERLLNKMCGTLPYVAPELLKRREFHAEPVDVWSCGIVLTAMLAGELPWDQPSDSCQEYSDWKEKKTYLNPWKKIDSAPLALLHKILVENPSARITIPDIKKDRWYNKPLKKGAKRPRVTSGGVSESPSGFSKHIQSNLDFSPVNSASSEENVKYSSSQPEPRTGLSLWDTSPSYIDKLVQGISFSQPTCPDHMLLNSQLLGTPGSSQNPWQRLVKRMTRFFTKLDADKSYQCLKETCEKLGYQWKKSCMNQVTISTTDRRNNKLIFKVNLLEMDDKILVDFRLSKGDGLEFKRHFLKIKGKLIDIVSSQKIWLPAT
Assay: in vitro binding test against human CHK1 (Eurofins Discovery), at […]

| inhibition at 1 µM | Compound |
| --- | --- |
| 95% | CNC(=O)c1ccc(NC(=O)Nc2cnc(C)cn2)c(OC[C@@H]2CNCCO2)c1 [9a] |
| 90% | CNC(=O)c1ccc(OC[C@@H]2CNCCO2)c(NC(=O)Nc2cnc(C)cn2)c1 [9b] |
| 98% | Cc1cnc(NC(=O)Nc2cc(Br)c(C)cc2OC[C@@H]2CNCCO2)cn1 [rabusertib] |
